Reference: patent US20070117743A1, “New antitumoral compounds” (priority 2003, published 2007)
Where a SMILES comes first, the peptide text is derived from it. Bridges are numbered along the chain shown (N, C = ends). [ ]: non-standard residue; d: D form. The star is where a group is joined. Hexanoyl(4S-Me) = CC[C@H](C)CCC(=O)*; d(aIle) = CC[C@H](C)[C@@H](N)C(=O)O; d(aThr) = C[C@@H](O)[C@@H](N)C(=O)O; Tic = O=C(O)[C@@H]1Cc2ccccc2CN1; 2Thi = N[C@@H](Cc1cccs1)C(=O)O; Orn = NCCC[C@H](N)C(=O)O; Dhb = C/C=C(\N)C(=O)O

Key:
Format in all cases: cell-based, human
LoVo = assay: SRB colorimetric assay of cell growth and viability, LoVo; conditions: 48 hours exposure, SRB; for CC50: read-out: LC50 LOVO
K-562 = assay: SRB colorimetric assay of cell growth and viability, K-562; conditions: 48 hours exposure, SRB; for CC50: read-out: LC50 K-562
SK-MEL-28 = assay: SRB colorimetric assay of cell growth and viability, SK-MEL-28; conditions: 48 hours exposure, SRB; for CC50: read-out: LC50 MEL-28
IGROV-1 = assay: SRB colorimetric assay of cell growth and viability, IGROV-1; conditions: 48 hours exposure, SRB
HeLa-APL = assay: SRB colorimetric assay of cell growth and viability, HeLa-APL; conditions: 48 hours exposure, SRB; for CC50: read-out: LC50 HELA-APL
DU-145 = assay: SRB colorimetric assay of cell growth and viability, DU-145; conditions: 48 hours exposure, SRB
IGROV-ET = assay: SRB colorimetric assay of cell growth and viability, IGROV-ET; conditions: 48 hours exposure, SRB; for CC50: read-out: LC50 IGROV-ET
HT-29 = assay: SRB colorimetric assay of cell growth and viability, HT-29; conditions: 48 hours exposure, SRB; for GI50: read-out: GI50 HT-29; for CC50: read-out: LC50 HT-29
A-549 = assay: SRB colorimetric assay of cell growth and viability, A-549; conditions: 48 hours exposure, SRB; for GI50: read-out: GI50 A-549; for CC50: read-out: LC50 A-549
PANC-1 = assay: SRB colorimetric assay of cell growth and viability, PANC-1; conditions: 48 hours exposure, SRB; for CC50: read-out: LC50 PANC-1
SK-BR-3 = assay: SRB colorimetric assay of cell growth and viability, SK-BR-3; conditions: 48 hours exposure, SRB
Excerpt: The finality of this assay is to interrupt the growth of a “in vitro” tumor cell culture by means a continued exhibition of the cells to the sample to be testing.
This form of the assay employs 96 well cell culture microplates of 9 mm diameter (Faircloth, 1988; Mosmann, 1983). Most of the cell lines are obtained from American Type Culture Collection (ATCC) derived from different human cancer types.
Cells are maintained in RPMI 1640 10% FBS, supplemented with 0.1 g/l penicillin and 0.1 g/l streptomycin sulfate and then incubated at 37° C., 5% CO2 and 98% humidity. For the experiments, cells were harvested from subconfluent cultures using trypsin and resuspended in fresh medium before plating.
Cells are seeded in 96 well microtiter plates, at 5×10^3 cells per well in aliquots of 195 μL medium, and they are allowed to attach to the plate surface by growing in drug free medium for 18 hours. Afterward, samples are added in aliquots of 5 μL in a ranging from 10 to 10^−8 μg/mL, dissolved in DMSO:EtOH:PBS (0.5:0.5:99). After 48 hours exposure, the antitumor effect are measured by the SRB methodology: cells are fixed by adding 50 μL of cold 50% (wt/vol) trichloroacetic acid (TCA) and incubating for 60 minutes at 4° C. Plates are washed with deionized water and dried. One hundred μL of SRB solution (0.4% wt/vol in 1% acetic acid) is added to each microtiter well and incubated for 10 minutes at room temperature. Unbound SRB is removed by washing with 1% acetic acid. Plates are air dried and bound stain is solubilized with Tris buffer. Optical densities are read on a automated spectrophotometric plate reader at a single wavelength of 490 nm.
The values for mean+/− SD of data from triplicate wells are calculated. Some parameters for cellular responses can be calculated: GI=growth inhibition, TGI=total growth inhibition (cytostatic effect) and LC=cell killing (cytotoxic effect).

HeLa = assay: SRB colorimetric assay of cell growth and viability, HeLa; conditions: 48 hours exposure, SRB; for CC50: read-out: LC50 HELA
LoVo-Dox = assay: SRB colorimetric assay of cell growth and viability, LoVo-Dox; conditions: 48 hours exposure, SRB; for CC50: read-out: LC50 LOVO-DOX
Procedure, shortened: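 Human tumor cells seeded at 5×10^3/well in RPMI 1640 10% FBS, attached 18 hours, then exposed 48 hours to compound (10 to 10^−8 μg/mL). TCA-fixed, SRB-stained, OD 490 nm; triplicates give GI, TGI and LC values.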

In the case of C/C=C1\NC(=O)[C@H](Cc2cccs2)NC(=O)[C@@H](C(C)C)NC(=O)[C@@H]([C@@H](C)CC)NC(=O)[C@H](NC(=O)[C@H](NC(=O)[C@H](CCCN)NC(=O)[C@H]2CCCN2C(=O)[C@H](NC(=O)[C@@H](NC(=O)[C@@H](NC(=O)[C@H](NC(=O)CC[C@@H](C)CC)C(C)C)[C@@H](C)O)C(C)C)C(C)C)[C@@H](C)CC)[C@@H](C)OC(=O)[C@H](C(C)C)NC1=O [Compound 76, [Thi^3, (4S)-MeHex^14]-KF] ({Hexanoyl(4S-Me)}-[dV]TV[dV][dP][Orn][d(aIle)][d(aThr)][d(aIle)][dV][2Thi][Dhb]V; ester 8-C), the GI50 (LoVo) is reported as 243 nM, the “TGI LOVO” value (LoVo) is reported as 7.21E−07 Molar and the CC50 (LoVo) is reported as 2160 nM. For the same compound, the GI50 (K-562) was 1710 nM, the “TGI K-562” value (K-562) was 4.01E−06 Molar and the CC50 (K-562) was 6740 nM. The GI50 (SK-MEL-28) was 1540 nM, the “TGI MEL-28” value (SK-MEL-28) was 2.52E−06 Molar and the CC50 (SK-MEL-28) was 4140 nM. For the same compound, the GI50 (IGROV-1) was 1180 nM, the LC50 (concentration causing 50% net cell killing) (IGROV-1) was 3870 nM and the “TGI IGROV” value (IGROV-1) was 2.14E−06 Molar. The GI50 (HeLa-APL) was 1350 nM, the “TGI HELA-APL” value (HeLa-APL) was 2.28E−06 Molar and the CC50 (HeLa-APL) was 3860 nM. For the same compound, the GI50 (DU-145) was 1200 nM, the LC50 (concentration causing 50% net cell kill) (DU-145) was 3750 nM and the “TGI DU-145” value (DU-145) was 2.12E−06 Molar. For the same compound, the GI50 (IGROV-ET) was 1000 nM, the “TGI IGROV-ET” value (IGROV-ET) was 1.85E−06 Molar and the CC50 (IGROV-ET) was 3410 nM. For the same compound, the “TGI HT-29” value (HT-29) was 1.74E−06 Molar, the GI50 (HT-29) was 842 nM and the CC50 (HT-29) was 3590 nM. The “TGI A-549” value (A-549) was 2.60E−06 Molar, the GI50 (A-549) was 1530 nM and the CC50 (A-549) was 4430 nM. For the same compound, the GI50 (PANC-1) was 5930 nM, the “TGI PANC-1” value (PANC-1) was 6.74E−06 Molar and the CC50 (PANC-1) was 6740 nM. For the same compound, the GI50 (SK-BR-3) was 313 nM, the LC50 (SK-BR-3) was 2040 nM and the “TGI SK-BR-3” value (SK-BR-3) was 6.26E−07 Molar. The GI50 (HeLa) was 1180 nM, the “TGI HELA” value (HeLa) was 2.01E−06 Molar and the CC50 (HeLa) was 3450 nM. For the same compound, the GI50 (LoVo-Dox) was 147 nM, the “TGI LOVO-DOX” value (LoVo-Dox) was 2.61E−07 Molar and the CC50 (LoVo-Dox) was 463 nM.

With C/C=C1\NC(=O)[C@@H]2Cc3ccccc3CN2C(=O)[C@@H](C(C)C)NC(=O)[C@@H]([C@@H](C)CC)NC(=O)[C@H](NC(=O)[C@H](NC(=O)[C@H](CCCN)NC(=O)[C@H]2CCCN2C(=O)[C@H](NC(=O)[C@@H](NC(=O)[C@@H](NC(=O)[C@H](NC(=O)CC[C@@H](C)CC)C(C)C)[C@@H](C)O)C(C)C)C(C)C)[C@@H](C)CC)[C@@H](C)OC(=O)[C@H](C(C)C)NC1=O [Compound 77, [Tic^3, (4S)-MeHex^14]-KF] ({Hexanoyl(4S-Me)}-[dV]TV[dV][dP][Orn][d(aIle)][d(aThr)][d(aIle)][dV][Tic][Dhb]V; ester 8-C) the GI50 (LoVo) was 913 nM, the “TGI LOVO” value (LoVo) was 1.76E−06 Molar and the CC50 (LoVo) was 3400 nM. The GI50 (K-562) was 17 nM, the “TGI K-562” value (K-562) was 3.99E−06 Molar and the CC50 (K-562) was 6710 nM. For the same compound, the GI50 (SK-MEL-28) was 1580 nM, the “TGI MEL-28” value (SK-MEL-28) was 3.41E−06 Molar and the CC50 (SK-MEL-28) was 6710 nM. For the same compound, the GI50 (IGROV-1) was 1610 nM, the LC50 (concentration causing 50% net cell killing) (IGROV-1) was 4260 nM and the “TGI IGROV” value (IGROV-1) was 2.62E−06 Molar. The GI50 (HeLa-APL) was 1570 nM, the “TGI HELA-APL” value (HeLa-APL) was 2.53E−06 Molar and the CC50 (HeLa-APL) was 4070 nM. For the same compound, the GI50 (DU-145) was 3630 nM, the LC50 (concentration causing 50% net cell kill) (DU-145) was 6740 nM and the “TGI DU-145” value (DU-145) was 6.71E−06 Molar. The GI50 (IGROV-ET) was 1420 nM, the “TGI IGROV-ET” value (IGROV-ET) was 2.34E−06 Molar and the CC50 (IGROV-ET) was 3860 nM. For the same compound, the “TGI HT-29” value (HT-29) was 2.21E−06 Molar, the GI50 (HT-29) was 1230 nM and the CC50 (HT-29) was 3970 nM. The “TGI A-549” value (A-549) was 2.58E−06 Molar, the GI50 (A-549) was 1520 nM and the CC50 (A-549) was 4400 nM. For the same compound, the GI50 (PANC-1) was 6740 nM, the “TGI PANC-1” value (PANC-1) was 6.74E−06 Molar and the CC50 (PANC-1) was 6740 nM. The GI50 (SK-BR-3) was 873 nM, the LC50 (SK-BR-3) was 5510 nM and the “TGI SK-BR-3” value (SK-BR-3) was 2.19E−06 Molar. The GI50 (HeLa) was 1430 nM, the “TGI HELA” value (HeLa) was 2.29E−06 Molar and the CC50 (HeLa) was 3660 nM. For the same compound, the GI50 (LoVo-Dox) was 271 nM, the “TGI LOVO-DOX” value (LoVo-Dox) was 8.32E−07 Molar and the CC50 (LoVo-Dox) was 2140 nM.
